Experimental data taken from US20240101576A1, “HETEROCYCLIC INHIBITORS OF EGFR AND/OR HER2, FOR USE IN THE TREATMENT OF CANCER” (Scorpion Therapeutics, Inc., priority 2020, published 2024).

Legend:
Assay type in all cases: cell-based
[1] = biological target: T1, EGFR exon 20 ASV Ins V769_D770 (Ba/F3 cells) (Homo sapiens, UniProt P00533, INS769ASV); assay: Inhibitor activity on EGFR-dependent cell growth (CellTiter-Glo, 72 h), Ba/F3 EGFR exon 20 ASV Ins; details: read-out: BaF3 ASV IC50
T1 construct: expressed in transfected cells; host or cells: Ba/F3 (murine pro-B cells), retroviral transduction, puromycin selection, IL3-independent pool
T1 sequence (P00533 with tags, fused parts or gaps INS769ASV): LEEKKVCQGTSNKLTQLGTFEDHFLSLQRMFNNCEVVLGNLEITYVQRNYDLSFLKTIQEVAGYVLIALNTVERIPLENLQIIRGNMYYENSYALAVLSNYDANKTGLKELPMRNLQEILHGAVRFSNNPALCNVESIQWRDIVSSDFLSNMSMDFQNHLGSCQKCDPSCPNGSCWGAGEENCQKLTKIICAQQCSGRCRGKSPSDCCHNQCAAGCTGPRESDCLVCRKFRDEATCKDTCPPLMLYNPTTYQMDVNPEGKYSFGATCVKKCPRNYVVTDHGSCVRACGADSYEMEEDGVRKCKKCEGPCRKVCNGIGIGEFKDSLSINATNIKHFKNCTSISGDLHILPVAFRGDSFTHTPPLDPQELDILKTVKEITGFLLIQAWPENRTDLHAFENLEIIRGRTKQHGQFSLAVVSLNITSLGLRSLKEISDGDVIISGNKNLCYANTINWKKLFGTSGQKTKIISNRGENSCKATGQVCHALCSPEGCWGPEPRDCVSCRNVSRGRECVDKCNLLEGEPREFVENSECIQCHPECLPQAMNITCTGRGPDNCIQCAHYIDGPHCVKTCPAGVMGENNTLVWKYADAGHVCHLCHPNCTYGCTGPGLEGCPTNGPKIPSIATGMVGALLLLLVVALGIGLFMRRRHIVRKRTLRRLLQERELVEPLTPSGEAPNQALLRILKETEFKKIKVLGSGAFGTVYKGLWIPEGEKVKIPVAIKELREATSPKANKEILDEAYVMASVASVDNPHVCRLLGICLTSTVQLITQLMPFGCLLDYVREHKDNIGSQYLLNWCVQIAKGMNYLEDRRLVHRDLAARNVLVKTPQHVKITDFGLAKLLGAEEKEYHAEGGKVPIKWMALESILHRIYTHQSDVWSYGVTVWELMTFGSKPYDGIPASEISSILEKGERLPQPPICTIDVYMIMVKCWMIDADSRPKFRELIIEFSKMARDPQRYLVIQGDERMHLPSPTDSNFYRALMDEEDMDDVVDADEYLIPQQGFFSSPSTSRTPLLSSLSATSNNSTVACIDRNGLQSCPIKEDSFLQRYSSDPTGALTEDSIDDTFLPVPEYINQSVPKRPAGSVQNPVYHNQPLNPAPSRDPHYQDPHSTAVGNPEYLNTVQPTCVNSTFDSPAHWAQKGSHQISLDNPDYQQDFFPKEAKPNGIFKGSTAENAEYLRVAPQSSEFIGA
Summary of the method: (§1)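 IC50s derive from a sigmoidal dose–response fit of CellTiter-Glo signal. The signal was normalised between […]-treated cells and cell-free medium. Ba/F3 mutant-EGFR cells, seeded at 400–800/well depending on the line, had 72 h of exposure to a 10-point, 3-fold compound series.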

[2] = biological target: T2, EGFR exon 20 SVD Ins D770_N771 (Ba/F3 cells) (Homo sapiens, UniProt P00533, INS770SVD); assay: Inhibitor activity on EGFR-dependent cell growth (CellTiter-Glo, 72 h), Ba/F3 EGFR exon 20 SVD Ins; details: read-out: BaF3 SVD IC50
T2 construct: expressed in transfected cells; host or cells: Ba/F3 (murine pro-B cells), retroviral transduction, puromycin selection, IL3-independent pool
T2 sequence (P00533 with tags, fused parts or gaps INS770SVD): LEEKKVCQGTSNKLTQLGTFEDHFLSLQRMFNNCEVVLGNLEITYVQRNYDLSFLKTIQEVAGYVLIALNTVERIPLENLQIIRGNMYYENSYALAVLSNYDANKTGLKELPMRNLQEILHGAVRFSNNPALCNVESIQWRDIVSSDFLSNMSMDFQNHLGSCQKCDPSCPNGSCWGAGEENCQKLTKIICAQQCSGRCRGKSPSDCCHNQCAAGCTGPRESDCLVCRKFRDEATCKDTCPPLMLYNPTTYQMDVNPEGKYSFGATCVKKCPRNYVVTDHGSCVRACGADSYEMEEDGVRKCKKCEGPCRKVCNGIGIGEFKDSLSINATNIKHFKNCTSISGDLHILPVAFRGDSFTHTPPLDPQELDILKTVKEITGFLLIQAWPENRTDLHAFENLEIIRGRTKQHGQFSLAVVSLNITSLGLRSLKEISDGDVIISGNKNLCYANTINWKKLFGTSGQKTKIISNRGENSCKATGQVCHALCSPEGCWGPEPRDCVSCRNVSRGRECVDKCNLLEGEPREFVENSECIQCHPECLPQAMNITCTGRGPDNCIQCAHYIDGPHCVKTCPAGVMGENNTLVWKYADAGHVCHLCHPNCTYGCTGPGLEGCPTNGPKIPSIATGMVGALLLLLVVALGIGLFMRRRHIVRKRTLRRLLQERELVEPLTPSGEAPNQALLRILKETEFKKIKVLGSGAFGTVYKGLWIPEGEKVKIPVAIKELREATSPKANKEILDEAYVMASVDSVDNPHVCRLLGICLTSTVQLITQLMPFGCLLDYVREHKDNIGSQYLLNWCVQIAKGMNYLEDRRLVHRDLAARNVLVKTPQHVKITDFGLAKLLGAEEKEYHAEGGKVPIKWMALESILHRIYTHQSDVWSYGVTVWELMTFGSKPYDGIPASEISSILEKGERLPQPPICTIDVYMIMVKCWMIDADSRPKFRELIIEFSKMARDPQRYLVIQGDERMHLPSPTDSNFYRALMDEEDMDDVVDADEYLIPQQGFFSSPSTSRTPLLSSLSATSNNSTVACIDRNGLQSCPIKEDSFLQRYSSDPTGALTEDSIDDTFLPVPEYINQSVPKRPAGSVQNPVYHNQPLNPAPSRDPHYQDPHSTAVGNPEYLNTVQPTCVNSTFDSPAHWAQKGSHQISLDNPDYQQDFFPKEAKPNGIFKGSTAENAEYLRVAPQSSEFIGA
Summary of the method: as §1

[3] = biological target: T3, EGFR exon 20 FQEA Ins A763_V764 (Ba/F3 cells) (Homo sapiens, UniProt P00533, INS763FQEA); assay: Inhibitor activity on EGFR-dependent cell growth (CellTiter-Glo, 72 h), Ba/F3 EGFR exon 20 FQEA Ins; details: read-out: BaF3 FQEA IC50
T3 construct: expressed in transfected cells; host or cells: Ba/F3 (murine pro-B cells), retroviral transduction, puromycin selection, IL3-independent pool
T3 sequence (P00533 with tags, fused parts or gaps INS763FQEA): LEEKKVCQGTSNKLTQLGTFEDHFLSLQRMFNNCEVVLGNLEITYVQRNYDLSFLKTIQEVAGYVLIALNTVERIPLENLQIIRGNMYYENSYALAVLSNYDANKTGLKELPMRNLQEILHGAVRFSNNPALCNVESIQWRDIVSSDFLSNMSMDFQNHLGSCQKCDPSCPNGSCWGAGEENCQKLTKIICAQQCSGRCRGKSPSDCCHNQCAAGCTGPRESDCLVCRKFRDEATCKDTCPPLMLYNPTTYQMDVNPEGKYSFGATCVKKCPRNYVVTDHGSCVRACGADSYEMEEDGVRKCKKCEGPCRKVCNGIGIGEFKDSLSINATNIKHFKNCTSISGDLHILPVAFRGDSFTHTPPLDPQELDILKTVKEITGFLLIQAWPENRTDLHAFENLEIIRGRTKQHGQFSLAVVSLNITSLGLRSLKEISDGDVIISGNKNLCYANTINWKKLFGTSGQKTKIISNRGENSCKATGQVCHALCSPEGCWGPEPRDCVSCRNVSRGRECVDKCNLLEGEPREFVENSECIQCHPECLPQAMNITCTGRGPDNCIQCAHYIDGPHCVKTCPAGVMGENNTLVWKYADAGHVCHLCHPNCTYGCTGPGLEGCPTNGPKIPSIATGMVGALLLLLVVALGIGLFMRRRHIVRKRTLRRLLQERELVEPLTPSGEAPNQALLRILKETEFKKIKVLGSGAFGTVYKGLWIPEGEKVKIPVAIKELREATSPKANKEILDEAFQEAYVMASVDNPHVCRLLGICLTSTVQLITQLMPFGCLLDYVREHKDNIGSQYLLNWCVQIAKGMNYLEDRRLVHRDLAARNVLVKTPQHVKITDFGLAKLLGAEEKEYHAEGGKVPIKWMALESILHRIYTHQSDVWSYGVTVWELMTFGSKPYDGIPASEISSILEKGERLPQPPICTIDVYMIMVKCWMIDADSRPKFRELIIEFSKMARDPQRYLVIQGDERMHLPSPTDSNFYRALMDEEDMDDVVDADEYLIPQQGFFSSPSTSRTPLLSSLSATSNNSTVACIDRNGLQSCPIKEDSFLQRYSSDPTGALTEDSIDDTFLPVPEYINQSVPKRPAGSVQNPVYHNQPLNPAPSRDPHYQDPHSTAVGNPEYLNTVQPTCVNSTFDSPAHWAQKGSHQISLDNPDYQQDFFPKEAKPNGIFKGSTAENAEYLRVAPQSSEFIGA
Summary of the method: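 Ba/F3, retrovirally transduced, puromycin-selected, grown without IL3; cells/well: L858R 400, L858R/C797S 600, exon 19del 800, FQEA 800. Cpds from 10 mM DMSO stock, 3-fold ×10 dilution, 120 nL per well; 72 h. CTG readout; IC50 via Hill equation.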

[4] = biological target: T4, EGFR WT (Ba/F3 cells) (Homo sapiens, UniProt P00533); assay: Inhibitor activity on EGFR-dependent cell growth (CellTiter-Glo, 72 h), Ba/F3 EGFR WT; details: read-out: BaF3 WT IC50
T4 construct: expressed in transfected cells; host or cells: Ba/F3 (murine pro-B cells), retroviral transduction, puromycin selection, maintained with EGF
T4 sequence (P00533 25-1210): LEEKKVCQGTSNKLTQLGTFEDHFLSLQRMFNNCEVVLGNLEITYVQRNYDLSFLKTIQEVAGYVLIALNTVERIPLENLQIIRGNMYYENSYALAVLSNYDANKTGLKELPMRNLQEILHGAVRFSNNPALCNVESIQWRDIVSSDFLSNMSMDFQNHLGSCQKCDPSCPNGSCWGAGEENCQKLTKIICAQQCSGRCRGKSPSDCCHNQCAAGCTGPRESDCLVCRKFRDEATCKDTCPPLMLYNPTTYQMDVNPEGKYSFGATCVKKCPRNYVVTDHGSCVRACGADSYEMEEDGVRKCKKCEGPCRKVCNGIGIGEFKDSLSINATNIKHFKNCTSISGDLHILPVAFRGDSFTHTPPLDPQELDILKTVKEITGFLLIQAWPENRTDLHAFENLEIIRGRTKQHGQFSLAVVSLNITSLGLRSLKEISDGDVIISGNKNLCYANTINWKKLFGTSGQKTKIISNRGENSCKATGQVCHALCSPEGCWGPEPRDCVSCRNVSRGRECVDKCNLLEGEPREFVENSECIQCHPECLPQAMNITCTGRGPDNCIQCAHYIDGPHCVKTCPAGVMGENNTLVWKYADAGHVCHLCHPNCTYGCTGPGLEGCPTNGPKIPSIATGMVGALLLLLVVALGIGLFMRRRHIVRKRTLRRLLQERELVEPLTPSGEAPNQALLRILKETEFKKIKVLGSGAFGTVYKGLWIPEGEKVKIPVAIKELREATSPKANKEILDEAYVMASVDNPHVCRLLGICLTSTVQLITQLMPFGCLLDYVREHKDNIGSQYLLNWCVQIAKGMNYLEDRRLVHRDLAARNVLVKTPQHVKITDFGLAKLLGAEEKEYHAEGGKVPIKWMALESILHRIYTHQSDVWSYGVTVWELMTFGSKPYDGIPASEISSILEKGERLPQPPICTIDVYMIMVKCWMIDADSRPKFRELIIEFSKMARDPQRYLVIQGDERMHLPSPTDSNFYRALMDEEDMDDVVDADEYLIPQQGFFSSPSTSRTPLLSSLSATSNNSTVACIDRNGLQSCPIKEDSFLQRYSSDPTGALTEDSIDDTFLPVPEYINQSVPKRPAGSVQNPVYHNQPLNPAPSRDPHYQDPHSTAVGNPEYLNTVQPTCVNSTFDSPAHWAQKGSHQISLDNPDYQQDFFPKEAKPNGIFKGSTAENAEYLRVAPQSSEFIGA
Summary of the method: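 This growth assay used Ba/F3 cells that depend on wild-type EGFR and are kept in EGF without IL3. Compounds were made up as 10 mM DMSO stocks and diluted 3-fold over 10 points. 120 nL went onto 600 cells/well. After 72 hours, 40 μL CellTiter-Glo was added and luminescence read on EnVision after 30 min.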

| SMILES | IC50 [1] [nM] | IC50 [2] [nM] | IC50 [3] [nM] | IC50 [4] [nM] |
| --- | --- | --- | --- | --- |
| COc1c(Cl)cccc1Nc1c(-c2ccnc3ccc(OCCCN4CCOCC4)nc23)[nH]c2c1C(=O)NCC2 [compound 503, 3-[(3-chloro-2-methoxyphenyl)amino]-2-{6-[3-(morpholin-4-yl)propoxy]-1,5-naphthyridin-4-yl}-1H,5H,6H,7H-pyrrolo[3,2-c] pyridin-4-one] | < 100 | < 100 | < 100 | 100 to 1000 |
| COc1c(F)cccc1Nc1c(-c2ccncc2F)[nH]c2c1C(=O)NC[C@@H]2C[C@@H]1CCO1 [Compound 422b, (7S)-3-[(3-fluoro-2-methoxyphenyl)amino]-2-(3-fluoropyridin-4-yl)-7-[(2R)-oxetan-2-ylmethyl]-1H,5H,6H,7H-pyrrolo[3,2-c]pyridin-4-one] | 100 to 1000 | 100 to 1000 | 100 to 1000 | > 1000 |
| COc1ncc2nccc(-c3[nH]c4c(c3Nc3cc(F)cc(Cl)c3OC)C(=O)NCC4)c2n1 [Compound 792, 3-[(3-chloro-5-fluoro-2-methoxyphenyl)amino]-2-[2-methoxypyrido[3,2-d]pyrimidin-8-yl]-1H,5H,6H,7H-pyrrolo[3,2-c]pyridin-4-one] | < 100 | < 100 | < 100 | 100 to 1000 |
| COc1c(Cl)cccc1Nc1c(-c2ccncc2F)[nH]c2c1C(=O)NC[C@H]2CC(=O)N(C)C [Compound 487] | 100 to 1000 | 100 to 1000 | 100 to 1000 | > 1000 |
| COc1c(Cl)cccc1Nc1c(-c2ccnc3ccc(OCC4CCC4)nc23)[nH]c2c1C(=O)NCC2 [compound 756, 3-[(3-chloro-2-methoxyphenyl)amino]-2-[6-(cyclobutylmethoxy)-1,5-naphthyridin-4-yl]-1H,5H,6H,7H-pyrrolo[3,2-c]pyridin-4-one] | < 100 | 100 to 1000 | 100 to 1000 | 100 to 1000 |
| COc1c(F)cccc1Nc1c(-c2ccnc(-c3cnn(C)c3)c2)[nH]c2c1C(=O)NCC2 [compound 259] | > 1000 | > 1000 | > 1000 | > 1000 |
| COc1c(F)cccc1Nc1c(-c2ccnc3cnc(C(F)(F)F)nc23)[nH]c2c1C(=O)NCC2 [compound 417] | 100 to 1000 | 100 to 1000 | 100 to 1000 | > 1000 |
| COc1ncc2nccc(-c3[nH]c4c(c3Nc3cccc(Cl)c3)C(=O)NCC4)c2n1 [Compound 798, 3-[(3-chlorophenyl)amino]-2-[2-methoxypyrido[3,2-d]pyrimidin-8-yl]-1H,5H,6H,7H-pyrrolo[3,2-c]pyridin-4-one] | < 100 | < 100 | < 100 | 100 to 1000 |
| COc1cc2nccc(-c3[nH]c4c(c3Nc3cccc(Cl)c3OC)C(=O)NCC4)c2nc1OCCN(C)C [compound 501, 3-[(3-chloro-2-methoxyphenyl)amino]-2-{6-[2-(dimethylamino)ethoxy]-7-methoxy-1,5-naphthyridin-4-yl}-1H,5H,6H,7H-pyrrolo[3,2-c]pyridin-4-one] | < 100 | < 100 | < 100 | 100 to 1000 |
| COCC[C@H]1CNC(=O)c2c1[nH]c(-c1ccncc1F)c2Nc1cccc(F)c1OC(F)F [Compound 471, (7S)-3-{[2-(difluoromethoxy)-3-fluorophenyl]amino}-2-(3-fluoropyridin-4-yl)-7-(2-methoxyethyl)-1H,5H,6H,7H-pyrrolo[3,2-c]pyridin-4-one] | 100 to 1000 | 100 to 1000 | 100 to 1000 | > 1000 |
| COc1c(Cl)cccc1Nc1c(-c2ccnc3ccc(OC4CC4)nc23)[nH]c2c1C(=O)NCC21CC1 [compound 323] | < 100 | < 100 | < 100 | 100 to 1000 |
| COc1cc2c(-c3[nH]c4c(c3Nc3cccc(Cl)c3OC)C(=O)NCC4)ccnc2cn1 [Compound 772, 3-[(3-chloro-2-methoxyphenyl)amino]-2-(6-methoxy-1,7-naphthyridin-4-yl)-1H,5H,6H,7H-pyrrolo[3,2-c]pyridin-4-one] | > 1000 | > 1000 | > 1000 | > 1000 |
| COc1c(F)cccc1Nc1c2c(n(C)c1-c1ccncc1F)CCNC2=O [Compound 789, 3-[(3-fluoro-2-methoxyphenyl)amino]-2-(3-fluoropyridin-4-yl)-1-methyl-5H,6H,7H-pyrrolo[3,2-c]pyridin-4-one] | > 1000 | > 1000 | > 1000 | > 1000 |
| COc1c(Cl)cccc1Nc1c(-c2ccncc2F)[nH]c2c1C(=O)NC[C@H]2CC(C)(C)O [compound 495, (7R)-3-[(3-chloro-2-methoxyphenyl)amino]-2-(3-fluoropyridin-4-yl)-7-(2-hydroxy-2-methylpropyl)-1H,5H,6H,7H-pyrrolo[3,2-c]pyridin-4-one] | < 100 | < 100 | < 100 | > 1000 |
| COc1c(Cl)cccc1Nc1c(-c2ccnc(Nc3cnoc3C)n2)[nH]c2c1C(=O)NCC2 [compound 510, 3-[(3-chloro-2-methoxyphenyl)amino]-2-{2-[(5-methyl-1,2-oxazol-4-yl)amino]pyrimidin-4-yl}-1H,5H,6H,7H-pyrrolo[3,2-c]pyridin-4-one] | < 100 | < 100 | 100 to 1000 | > 1000 |
| COc1c(Cl)cccc1Nc1c(-c2ccncc2F)[nH]c2c1C(=O)NC[C@@H]2CC(C)(C)O [Compound 496, (7S)-3-[(3-chloro-2-methoxyphenyl)amino]-2-(3-fluoropyridin-4-yl)-7-(2-hydroxy-2-methylpropyl)-1H,5H,6H,7H-pyrrolo[3,2-c]pyridin-4-one] | 100 to 1000 | 100 to 1000 | 100 to 1000 | > 1000 |
| COc1c(Cl)cccc1Nc1c(-c2ccnc3cnc(OC4CC4)nc23)[nH]c2c1C(=O)NCC2 [Compound 771, 3-[(3-chloro-2-methoxyphenyl)amino]-2-{2-cyclopropoxypyrido[3,2-d]pyrimidin-8-yl}-1H,5H,6H,7H-pyrrolo[3,2-c]pyridin-4-one] | < 100 | < 100 | < 100 | < 100 |
| COc1c(Cl)cccc1Nc1c(-c2ccnc3ccc(C4CC4)nc23)[nH]c2c1C(=O)NCC2 [compound 752, 3-[(3-chloro-2-methoxyphenyl)amino]-2-(6-cyclopropyl-1,5-naphthyridin-4-yl)-1H,5H,6H,7H-pyrrolo[3,2-c]pyridin-4-one] | < 100 | < 100 | < 100 | < 100 |
| COc1ccc2ncc(F)c(-c3[nH]c4c(c3Nc3cccc(Cl)c3OC)C(=O)NCC4)c2n1 [compound 829, 3-[(3-chloro-2-methoxyphenyl)amino]-2-(3-fluoro-6-methoxy-1,5-naphthyridin-4-yl)-1H,5H,6H,7H-pyrrolo[3,2-c]pyridin-4-one] | > 1000 | > 1000 | > 1000 | > 1000 |
| COc1ccc2nccc(-c3[nH]c4c(c3Nc3cccc(Cl)c3OC)C(=O)NCC4)c2c1 [Compound 773, 3-[(3-chloro-2-methoxyphenyl)amino]-2-(6-methoxyquinolin-4-yl)-1H,5H,6H,7H-pyrrolo[3,2-c]pyridin-4-one] | > 1000 | > 1000 | > 1000 | > 1000 |
